Binding and dissociation constant data for 1 compound are collected here from PMC7900183 (2021).

In experiment [1] the test system is PW17Ext (DNA, G4) GAGGAGGAGGAGGAGAGGGTAGGGCGGGTTGGG
The experiment is described as follows: fluorescence melting. The note with it: 150 mM Na+, 10 mM K+; 50 mM Tris, pH 7.4; complex more stable than without K+.

The subject of experiment [2] is Apt5.1-24 (DNA, aptamer) GCGTAGATCGAGGCTATTAGGAGG
The experiment can be described thus: fluorescence enhancement. The note with it: 150 mM Na+; less fluorescent than Apt5; 1 µM DNA, 5 µM ThT; 50 mM Tris, pH 7.4.

In experiment [3] the test system is Apt3 (DNA, aptamer) GCACGTCCAGGACGGGGGAGCGGTGCTAGTGTCTGGCAGG
The experiment can be described thus: fluorescence enhancement. Particulars: 150 mM Na+; 20x enhancement; 1 µM DNA, 5 µM ThT; 50 mM Tris, pH 7.4.

The subject of experiment [4] is Apt5.5-28 (DNA, aptamer) AGATCGAGGCTATTAGGAGGTGGG
The experiment is described as follows: fluorescence enhancement. The note with it: 150 mM Na+; less fluorescent than Apt5; 1 µM DNA, 5 µM ThT; 50 mM Tris, pH 7.4.

The test system of experiment [5] is ThT.2-2 (DNA, aptamer) GACGACGACACAGGATTAATCTTATTAGTCGTC
The experiment is described as follows: fluorescence enhancement. Particulars: less fluorescent than Apt5.9-32; several concentrations.

Experiment [6] has as its system Apt2 (DNA, aptamer) GACCGGAGGGGCATCAGCTGTCCGTGAGGTTGCCGCGAG
The experiment can be described thus: fluorescence enhancement. The note with it: 150 mM Na+; 13x enhancement; 1 µM DNA, 5 µM ThT; 50 mM Tris, pH 7.4.

Experiment [7] relates to Apt5.17-40 (DNA, aptamer) TTAGGAGGTGGGATGCGTCAGGGC
The experiment is described as follows: fluorescence enhancement. Particulars: 150 mM Na+; less fluorescent than Apt5; 1 µM DNA, 5 µM ThT; 50 mM Tris, pH 7.4.

The subject of experiment [8] is Primer-215 (DNA, single strand) ATGACCTATGAATTGACAGAC
The experiment can be described thus: fluorescence enhancement. The note with it: no fluorescence; 5 µM ThT, 1 µM oligonucleotide; text says miR-215 (Primer-215).

The test system of experiment [9] is Apt5 (DNA, aptamer) GCGTAGATCGAGGCTATTAGGAGGTGGGATGCGTCAGGGC
The experiment is described as follows: fluorescence enhancement. The note with it: 150 mM Na+; 61x enhancement; 1 µM DNA, 5 µM ThT; 50 mM Tris, pH 7.4.

Experiment [10] has as its system Apt1 (DNA, aptamer) TCGCGTGTGCAGAGGCGAGTAGGTGGGAGATCTGTCTGGG
The experiment can be described thus: fluorescence enhancement. Particulars: 150 mM Na+; 9x enhancement; 1 µM DNA, 5 µM ThT; 50 mM Tris, pH 7.4.

Experiment [11] concerns Apt5.9-32 (DNA, aptamer) CGAGGCTATTAGGAGGTGGGATGC
The experiment is described as follows: fluorescence titration, 510 nm. Particulars: 150 mM Na+; 50 mM Tris, pH 7.4; 1 µM ThT, aptamer 2.5-50 µM; mean of three.

Experiment [12] deals with Apt5.13-36 (DNA, aptamer) GCTATTAGGAGGTGGGATGCGTCA
The experiment is described as follows: fluorescence enhancement. Particulars: 150 mM Na+; less fluorescent than Apt5; 1 µM DNA, 5 µM ThT; 50 mM Tris, pH 7.4.

Experiment [13] deals with Apt4 (DNA, aptamer) GACCGGAGGGGCATCAGCTGTCCGTGAGGTTGCCGCGAGT
The experiment is described as follows: fluorescence enhancement. The note with it: 150 mM Na+; 14x enhancement; 1 µM DNA, 5 µM ThT; 50 mM Tris, pH 7.4.

Consider `Cc1ccc2c(c1)sc(-c1ccc(N(C)C)cc1)[n+]2C`, for which the binding entry is “yes” in experiment [1]; “weak” in [2]; “yes” in experiment [3]; “weak” in experiment [4]; “yes” in experiment [5]; “yes” in experiment [6]. The binding entry in experiment [7] is “weak”; in [8], “no”; in experiment [9] it was “yes”; in experiment [10] it was “yes”; in experiment [12] it was “weak”; in experiment [13], “yes”. In experiment [11], this compound showed a dissociation constant of 6 ± 2 µM.
